In patent US20090275667A1, “USE OF ALLICIN AS PRESERVATIVE, AS DISINFECTANT, AS ANTIMICROBIAL OR AS BIOCIDAL AGENT” (Stone Island Holdings Ltd, priority 2003, published 2009):
≈ marks a conversion by molar mass, not a printed value. Where “and” joins values, the source holds several entries; their conditions need not be identical. Equal values may be shown once.

Experiments:
[1] = test system: E. coli, Listeria, E. faecalis and other bacteria associated with animal diseases; conditions: laboratory tests of earlier application WO03/024437; cited from earlier work
[2] = test system: Paenibacillus larvae subsp. larvae; experiment: Disk diffusion test (Kirby-Bauer), zone of inhibition; assay type: cell-based; conditions: 6 mm paper disc containing 250 μg of allicin
Experimental: (§1) Allicin (Allisure™ Liquid) was tested against bacterial and fungal pathogens using a standard disk diffusion method (per Norrell & Messley). The aliquots of bacterial or fungal spores (100 μl of approximately 10^8-10^9 spores/ml) were plated on Mueller-Hinton agar medium, 4.0 mm depth. The 6 mm paper discs containing 250 μg of allicin or 5 μg of tylosin (positive control) were placed in the center of each plate. Plates were incubated at 33° C. and 6% CO2 and a zone of inhibition was measured 24 h, 48 h or 76 h post inoculation depending on the microbial species. All experiments were replicated at least three times.

[3] = test system: Paenibacillus larvae subsp. pulvifaciens; experiment: as above; assay type: cell-based; conditions: 6 mm paper disc containing 250 μg of allicin
Experimental: as §1

Ascosphaera apis [4] = experiment: as above; assay type: cell-based; conditions: 6 mm paper disc containing 250 μg of allicin
Experimental: as §1

Ascosphaera aggregata [5] = experiment: as above; assay type: cell-based; conditions: 6 mm paper disc containing 250 μg of allicin
Experimental: as §1

Staph. Aureus = experiment: Zones of Inhibition against common chicken bacteria; assay type: cell-based; conditions: Staphylococcus aureus
Ent. Hirae = experiment: Agar inhibition test; assay type: cell-based, Enterococcus hirae; conditions: equivalent to 0.0225% w/v
P. larvae subsp. larvae = experiment: Investigation into bacteriostatic or bactericidal effects (Study 2); assay type: cell-based, Paenibacillus larvae subsp. larvae; set-up: key to Growth in broth after exposure to test Item at concentration indicated: *: Growth present in one replicate only
Experimental: Where there was no growth in a replicate, at the end of one week the culture was plated out for single colonies on the appropriate agar. This was to determine whether the test item had bactericidal activity, where all the bacterial cells are killed, or bacteriostatic action, where the cells are unable to replicate in the presence of the substance, but will grow when it is removed. A further test, where 0.5 ml of the broth was transferred into 4.5 ml fresh broth (giving a 1:10 dilution) was also undertaken. There would still be some Allicin in the broth, but it should be present at a low enough concentration for growth not to be affected. Where growth occurred in the absence of Allicin, the broth was examined microscopically and plated out for single colonies to confirm the identity of the bacterium.

[6] = test system: methicillin resistant Staphylococcus aureus (MRSA); conditions: certain species of MRSA; earlier application WO03/024437; cited from earlier work
Salm. Enteriditis = experiment: Zones of Inhibition against common chicken bacteria; assay type: cell-based
Ascosphaera apis [7] = experiment: MIC by broth microdilution, bee pathogens; assay type: cell-based; conditions: range 1000 ppm to 0.25 ppm
Text: (§2) We tested allicia (Allisure™ Liquid) activity against several species of entomopathogenic bacteria (Paenibacillus larvae subsp. larvae, Paenibacillus larvae subsp. pulvifaciens) and fungi (Ascosphaera apis and Ascosphaera aggregata) using broth microdilution method to determine minimum inhibitory concentration (MIC) and the agar diffusion test (Kirby-Bauer) to determine zone of inhibition. Bacterial spores were isolated from the diseased honey bee larval samples. […]
(§3) Fungal spores (Ascosphaera apis) were collected from black honey bee mummies and (Ascosphaera aggregata) spores were collected from the diseased leaf cutter bees. […] The fungal colonies were analyzed by microscopic preparations of aerial mycelia and fungal spore cysts. […]
(§4) Positive controls contained the antibiotic Tylosin (Tylan® 50, Elanco Animal Health Inc., IN) and negative controls contained no antibiotics. […] The optical densities of cultures (OD 600) were recorded 24 h and 48 h post inoculation, depending on the growth rate of the microbial species. […] Minimum bactericidal concentration values (NBC) were determined for allicin by plating out 100 μl of bacterial cultures derived from the MIC assay. […]

Ascosphaera aggregata [8] = experiment: MIC by broth microdilution, bee pathogens; assay type: cell-based; conditions: range 1000 ppm to 0.25 ppm
Text: as §2, §3, §4

[9] = test system: GISA strain isolated from the UK mortality; experiment: Standard agar diffusion test against a GISA strain; assay type: cell-based, Staphylococcus aureus
Text: Allicin in a liquid form has been tested against the GISA strain isolated from the UK mortality. In a standard agar diffusion test the strain produced a zone of 37 mm at 500 ppm (FIG. 2) and 30 mm at 300 ppm.

P. l. pulvifaciens = experiment: Minimum bactericidal concentration by plating out MIC cultures; assay type: cell-based, Paenibacillus larvae subsp. pulvifaciens; conditions: range of 1000 ppm to 25 ppm
Experimental: Positive controls contained the antibiotic Tylosin (Tylan® 50, Elanco Animal Health Inc., IN) and negative controls contained no antibiotics. Bacterial (P. l. larvae, P. l. pulviphaciens) or fungal (A. apis, A. aggregata) spores (100 μl of approximately 10^8-10^9 spores/ml) were added to a 2.5 ml of bacterial or fungal liquid medium containing serial dilutions of allicin. Cultures were incubated in a shaker at 35° C. and 215 rpm. The optical densities of cultures (OD 600) were recorded 24 h and 48 h post inoculation, depending on the growth rate of the microbial species. […] Minimum bactericidal concentration values (NBC) were determined for allicin by plating out 100 μl of bacterial cultures derived from the MIC assay. Plates were incubated 24 h and 48 h at 33° C. and 6% CO2 to observe microbial growth.

For `C=CCS[S+]([O-])CC=C` (stereo not shown) [allicin, Allicin], which “concentration at which allicin can kill the bacteria” value [1] is on record?
Its value is “up to 500 ppm”.

And the zone of inhibition [2]?
Its zone of inhibition is 45-50 mm.

What about the zone of inhibition [3] of the same molecule?
The zone of inhibition was 24-26 mm.

And the zone of inhibition (Ascosphaera apis [4])?
The zone of inhibition was 31-35 mm.

What about the zone of inhibition (Ascosphaera aggregata [5]) of the same molecule?
The zone of inhibition was 35-37 mm and 35-38 mm.

What about the zone of inhibition at 166 ppm (Staph. Aureus; 166 ppm (1:6 dilution)) of the same molecule?
The zone of inhibition at 166 ppm was 0 mm.

What about the zone of inhibition at 1000 ppm (Staph. Aureus; 1000 ppm) of the same molecule?
The zone of inhibition at 1000 ppm was 32 mm.

What about the “allicin concentration at which inhibition was demonstrated on agar plates” value (Ent. Hirae) of the same molecule?
Its value is at most 0.225 g/L.

And the “Growth in broth after exposure to test Item at concentration indicated” value (P. larvae subsp. larvae; 50 ppm, 10% inoculum transferred to fresh broth)?
The value was “*”.

What about the “bacteriostatic or bactericidal effect” value (P. larvae subsp. larvae; conclusion from subculture after exposure) of the same molecule?
The value was “a bactericidal effect appeared to be observed”.

And the “susceptibility of MRSA to allicin” value [6]?
The value was “exceptionally susceptible”.

What about the “zone of inhibition” value (Salm. Enteriditis; 166 ppm (1:6 dilution)) of the same molecule?
Its value is 0 mm.

What about the “zone of inhibition” value (Salm. Enteriditis; 1000 ppm) of the same molecule?
Its value is 22 mm.

What about the MIC (Ascosphaera apis [7]) of the same molecule?
Its MIC is 250 µg/mL (≈ 1540 µM).

And the MIC (Ascosphaera aggregata [8])?
Its MIC is 250 µg/mL (≈ 1540 µM).

And the zone of inhibition at 300 ppm ([9]; Staphylococcus aureus, 300 ppm, allicin in a liquid form)?
The zone of inhibition at 300 ppm was 30 mm.

And the zone of inhibition at 500 ppm ([9]; Staphylococcus aureus, 500 ppm, allicin in a liquid form)?
The zone of inhibition at 500 ppm was 37 mm.

What about the “susceptibility of the GISA strain” value ([9]; recommended doses for topical use) of the same molecule?
The value was “fully susceptible”.

And the “bacteriostatic or bactericidal activity” value (P. l. pulvifaciens)?
Its value is “only bacteriostatic (no bactericidal) activity”.
